Measured values: patent publication US8093258B2, “Use of urokinase inhibitors for the treatment and/or prevention of neuropathological diseases” (Wilex AG, priority 2005, dated 2012)

Experiments:
[1] = system: ALS; details: ALS treatment with riluzole; cited from earlier work
[2] = system: FALS mice (G93A); experiment: Treatment of G93A FALS mice with uPA inhibitor WX-C340 (survival analysis, disease progression); format: in vivo; details: 10 mg WX-C340 i.p. daily
Description: Kaplan-Meyer-Analysis, G93A-ALS-model: Comparison of the survival of control group animals (N=42) with animals treated with 10 mg/kg WX-C340 i.p. Daily (treatment start day 30, n=18).
FALS mice (G93A) begin to show behavioral symptoms at about 90 days of age while G85R mice develop symptoms at about 8 months of age. The initial symptoms is a high frequency resting tremor. This progresses to gait abnormalities and uncoordinated movements. Later the mice begin to show paralysis of the hind limbs, eventually progressing to paralysis of the forelimbs and finally to complete paralysis. Animals were sacrificed when they were unable to roll over within 10 seconds of being pushed on their side. This time point is taken as the time of death.

## Nc1nc2ccc(OC(F)(F)F)cc2s1 [riluzole]
[1]
  prolongation of life: ca. 3 months

## Cl.N=C(N)Nc1ccc(CNC(=O)CNC(=O)[C@@H](CO)NS(=O)(=O)Cc2ccc(Cl)cc2)cc1 [WX-C340, 4-chlorobenzyl-sulfonyl-(D)-Ser-Gly-(4-guanidinobenzyl)amide hydrochloride]
[2]
  progression of disease (onset of paralysis of the front legs): delays the progression of disease
[2]; treatment start day 30, versus control group
  survival of the animals (Kaplan-Meyer analysis, FIG. 4): significantly improves the survival
